Laboratory results: the supplement of paper PMC10307832

Key:
Bromopyruvate + AZD7762 = compound: C(C(=O)C(=O)O)Br [Bromopyruvate] + NC(=O)Nc1cc(-c2cccc(F)c2)sc1C(=O)N[C@H]1CCCNC1 [AZD7762] (partner 0.2 µM); assay: relative viability (nuclei count vs DMSO), 5 days (fraction); higher = more cells survive
Summary of the method: (§1)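 Lung cancer cell lines were seeded in 1536-well plates and dosed by pin tool the next day, with either a single drug or a fixed anchor-drug dose combined with five library-drug doses (not always all listed) spaced in √10 steps. Five days later, one step fixed the cells and stained their nuclei (final 0.05% Triton X-100, 1% formaldehyde, 1 ug/ml Hoechst), and nuclei were counted on 4× images. Relative viability is the nuclei count in treated wells divided by the count in vehicle wells, and each value is the median of duplicate plates.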

[1] = compound: C(C(=O)C(=O)O)Br [Bromopyruvate] + CC(=O)Nc1cccc(-n2c(=O)n(C3CC3)c(=O)c3c(Nc4ccc(I)cc4F)n(C)c(=O)c(C)c32)c1 [Trametinib] (partner 0.02 µM); assay: as above
Summary of the method: as §1

Cell Line | relative viability (Bromopyruvate + AZD7762; first compound 1 µM) | relative viability (Bromopyruvate + AZD7762; first compound 3.162 µM) | relative viability (Bromopyruvate + AZD7762; first compound 10 µM) | relative viability (Bromopyruvate + AZD7762; first compound 31.62 µM) | relative viability (Bromopyruvate + AZD7762; first compound 100 µM) | relative viability ([1]; first compound 1 µM) | relative viability ([1]; first compound 3.162 µM) | relative viability ([1]; first compound 10 µM) | relative viability ([1]; first compound 31.62 µM) | relative viability ([1]; first compound 100 µM)
NCI-H650 | 0.931 | 1.18 | 0.934 | 1.05 | 0.945 | 0.971 | 1.02 | 0.928 | 0.955 | 0.991
NCI-H661 | – | – | – | – | – | 0.546 | 0.588 | 0.579 | 0.523 | 0.603
NCI-H727 | 0.664 | 0.582 | 0.635 | 0.521 | 0.53 | 0.42 | 0.376 | 0.461 | 0.428 | 0.36
NCI-H838 | 0.914 | 0.913 | 1.02 | 0.949 | 0.935 | 0.521 | 0.529 | 0.68 | 0.539 | 0.516
NCI-H1355 | 0.744 | 0.882 | 0.664 | 0.737 | 0.648 | 0.415 | 0.467 | 0.335 | 0.452 | 0.445
NCI-H1395 | 0.447 | 0.398 | 0.426 | 0.414 | 0.42 | 0.982 | 0.977 | 1.16 | 1.02 | 1.08
NCI-H1437 | 1.15 | 1.1 | 1.22 | 1.12 | 1.14 | 0.552 | 0.529 | 0.556 | 0.506 | 0.484
NCI-H1648 | 0.671 | 0.721 | 0.713 | 0.623 | 0.551 | 0.349 | 0.413 | 0.472 | 0.545 | 0.482
NCI-H1650 | – | – | – | – | – | 0.548 | 0.482 | 0.643 | 0.572 | 0.515
NCI-H1651 | 0.441 | 0.491 | 0.474 | 0.403 | 0.4 | 0.817 | 0.866 | 0.891 | 0.825 | 0.836
NCI-H1666 | 0.966 | 0.843 | 0.878 | 0.872 | 0.766 | 0.865 | 0.858 | 0.825 | 0.852 | 0.911
NCI-H1703 | 0.119 | 0.124 | 0.138 | 0.13 | 0.0978 | – | – | – | – | –
NCI-H1734 | 0.536 | 0.7 | 0.694 | 0.53 | 0.544 | 0.743 | 0.765 | 0.64 | 0.717 | 0.66
NCI-H1755 | 0.432 | 0.476 | 0.381 | 0.51 | 0.473 | 0.827 | 0.831 | 0.722 | 0.768 | 0.796
NCI-H1792 | 0.678 | 0.783 | 0.792 | 0.798 | 0.655 | 0.392 | 0.448 | 0.382 | 0.364 | 0.435
NCI-H1793 | 0.452 | 0.536 | 0.484 | 0.428 | 0.522 | 0.469 | 0.496 | 0.503 | 0.485 | 0.49
NCI-H1915 | 0.699 | 0.681 | 0.671 | 0.661 | 0.689 | 0.308 | 0.293 | 0.296 | 0.342 | 0.349
NCI-H1944 | 0.579 | 0.521 | 0.576 | 0.514 | 0.54 | 0.428 | 0.376 | 0.409 | 0.435 | 0.398
NCI-H1975 | 0.825 | 0.691 | 0.721 | 0.785 | 0.703 | 0.361 | 0.334 | 0.329 | 0.345 | 0.365

Cell Line | relative viability (Bromopyruvate + AZD7762; first compound 1 µM) | relative viability (Bromopyruvate + AZD7762; first compound 3.162 µM) | relative viability (Bromopyruvate + AZD7762; first compound 10 µM) | relative viability (Bromopyruvate + AZD7762; first compound 31.62 µM) | relative viability (Bromopyruvate + AZD7762; first compound 100 µM) | relative viability ([1]; first compound 1 µM) | relative viability ([1]; first compound 3.162 µM) | relative viability ([1]; first compound 10 µM) | relative viability ([1]; first compound 31.62 µM) | relative viability ([1]; first compound 100 µM)
NCI-H1993 | 0.821 | 0.872 | 0.994 | 0.851 | 0.982 | 0.52 | 0.561 | 0.493 | 0.533 | 0.535
NCI-H2009 | – | – | – | – | – | 0.277 | 0.328 | 0.246 | 0.26 | 0.245
NCI-H2023 | – | – | – | – | – | 0.55 | 0.483 | 0.517 | 0.562 | 0.482
NCI-H2085 | 0.947 | 1.01 | 1.04 | 0.991 | 0.95 | 0.559 | 0.685 | 0.516 | 0.563 | 0.341
NCI-H2087 | 1.19 | 1.4 | 1.36 | 1.2 | 1.32 | 0.224 | 0.189 | 0.156 | 0.175 | 0.185
NCI-H2126 | 0.989 | 1.04 | 1.2 | 0.953 | 1.04 | 0.547 | 0.579 | 0.559 | 0.591 | 0.57
NCI-H2170 | 0.923 | 0.989 | 1.19 | 0.893 | 0.854 | 0.918 | 0.923 | 0.99 | 0.902 | 0.925
NCI-H2228 | – | – | – | – | – | 0.472 | 0.505 | 0.548 | 0.514 | 0.538
NCI-H2342 | 0.397 | 0.436 | 0.451 | 0.47 | 0.481 | 0.757 | 0.912 | 0.779 | 0.696 | 0.736
NCI-H2347 | 0.751 | 0.79 | 0.754 | 0.711 | 0.773 | 0.224 | 0.28 | 0.335 | 0.248 | 0.274
NCI-H2405 | 0.998 | 0.888 | 0.887 | – | 0.254 | 0.735 | 0.739 | 0.764 | – | 0.684
NCI-H3122 | 1.03 | 0.967 | 1.04 | 0.989 | 0.921 | 0.223 | 0.237 | 0.24 | 0.204 | 0.129
PC-3 [JPC-3] | 0.903 | – | 0.933 | – | 0.638 | 0.734 | – | 0.787 | – | 0.734
PC-14 | 0.483 | 0.401 | 0.407 | 0.412 | 0.384 | 0.8 | 0.717 | 0.953 | 0.718 | 0.753
RERF-LC-KJ | 0.97 | 1.04 | 1.29 | 0.978 | 0.889 | 0.657 | 0.984 | 0.921 | 0.85 | 0.909
SK-LU-1 | – | – | – | – | – | 0.503 | 0.469 | 0.599 | 0.467 | 0.538
SK-MES-1 | – | – | – | – | – | 0.631 | 0.547 | 0.511 | 0.578 | 0.574
SW 900 | 0.629 | 0.528 | 0.519 | 0.564 | 0.66 | 0.865 | 0.76 | 0.92 | 0.729 | 0.739
SW 1573 | – | – | – | – | – | 0.582 | 0.576 | 0.608 | 0.432 | 0.0469
